Data: EP0373645A1, “Imidazolyl and pyridyl derivatives of phenyl substituted 1,4 -dihyropyridines and process for their preparation” (priority 1988, dated 1990)

Key:
TxA₂ Synthase [1] = biological target: T1, TxA₂ Synthase (Rattus norvegicus, UniProt P49430); assay: In vitro effect on TxB₂ synthesis in isolated glomeruli (RIA); assay type: cell-based
T1 construct: Blood was withdrawn from the abdominal aorta of the animals; from tissue; host or cells: whole blood of reduced renal mass (RRM) rats, allowed to clot 1 h at 37°C
T1 sequence (P49430 1-533): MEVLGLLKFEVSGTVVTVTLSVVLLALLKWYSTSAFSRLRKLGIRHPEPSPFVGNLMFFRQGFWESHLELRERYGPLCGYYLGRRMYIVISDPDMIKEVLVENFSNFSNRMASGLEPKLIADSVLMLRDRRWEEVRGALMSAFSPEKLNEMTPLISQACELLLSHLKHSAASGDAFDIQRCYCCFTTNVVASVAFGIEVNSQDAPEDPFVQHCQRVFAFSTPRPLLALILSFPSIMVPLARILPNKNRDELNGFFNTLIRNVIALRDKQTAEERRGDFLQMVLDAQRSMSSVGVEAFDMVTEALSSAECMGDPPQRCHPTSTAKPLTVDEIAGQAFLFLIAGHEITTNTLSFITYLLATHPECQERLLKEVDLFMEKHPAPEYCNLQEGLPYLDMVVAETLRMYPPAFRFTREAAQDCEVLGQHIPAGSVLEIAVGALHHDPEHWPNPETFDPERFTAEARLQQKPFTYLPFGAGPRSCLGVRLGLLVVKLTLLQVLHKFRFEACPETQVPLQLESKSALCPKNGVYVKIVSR
Method: (§1) Their ability to inhibit TxA₂ Synthase activity (as reflected by TxB₂ generated in whole blood during clotting or in isolated glomeruli) was tested in vitro and ex vivo in the rat.
(§2) The effect of the compounds on TxA₂ synthesis was evaluated in serum and in glomeruli isolated from kidney cortex of reduced renal mass rats (RRM). Ablation of >70% of renal mass in the rat results in hypertension, proteinuria and glomerular sclerosis of the remnant kidney. Rats with a remnant kidney have increased excretion of thromboxane in the urine when compared with normal rats [Purkerson et al.-Proc.Natl.Acad.Sci.USA 82, 193, 1985].
The isolation of glomeruli was performed as previously described [Patrignani et al., - J. Pharm. Exp. Ther. 228, 2, 472, 1984]
The isolated glomeruli of 4 rats were pooled, suspended in modified Krebs buffer (pH 7.3) and divided into portions of 1 ml each containing a concentration of the test compounds or of the reference compounds.
The TxA₂ synthesis was induced by incubating the glomeruli under shaking at 37°C for 1 h. At that time the incubation was stopped by centrifugation at +4°C, the supernatant collected and stored at -20°C until assayed by RIA.

TxA₂ Synthase [2] = biological target: T1, TxA₂ Synthase; assay: In vitro effect on TxB₂ synthesis in whole blood during clotting (RIA); assay type: cell-based; settings: for times more potent than the reference compound ASA (TxA₂ synthesis in whole blood): ratio to ASA; for times more potent than the reference compound Dazoxiben (TxA₂ synthesis in whole blood): ratio to Dazoxiben
Method: as §1, §2
Blood was withdrawn from the abdominal aorta of the animals under light ether anesthesia.
Samples were then allowed to clot for 1 h at 37°C, centrifuged at 3000 rpm for 10 min, serum collected and stored at -20°C until assayed. TxB₂ levels were determined by RIA according to previously described procedures [Patrono et al.-Thromb.Res. 17, 3/4, 317, 1980] using highly specific antibody.

[3] = test system: chronically cannulated hypertensive rats (SHR); assay: Antihypertensive activity, intra-arterial blood pressure and heart rate; assay type: in vivo
Method: The antihypertensive activity of the compounds of the invention was tested in chronically cannulated hypertensive rats (SHR).
For intra-arterial measurements of blood pressure (MBP) catheters (PE50 Clay Adams) were implanted in the right carotid artery under alothane anesthesia. Two days after surgery the animals were placed in a Ballman cage and the arterial catheter was connected to a stathman P23 Db pressure transducer and a Beckman multichannel R611 BP recorder for continuous monitoring of MBP and heart rate (HR).
Measurements were made predrug and 0.5, 1, 2, 4, 6 h after drug or vehicle (methocel 0.5% w/v).

[4] = Orientative acute oral toxicity; parameters: species or system Mice and rats; settings: in vivo; single oral administration, assessed on the seventh day after treatment; read-out: orientative acute toxicity (LD₅₀)
Method: The toxicity of the compounds of the invention is negligible, so that they can be safely used in therapy. Mice and rats which had been deprived of food for nine hours were treated orally with single administrations of increasing doses of compounds of the invention, then housed and normally fed. For example the orientative acute toxicity (LD₅₀) of the compound FCE 24265, assessed on the seventh day after treatment, was higher than 800 mg/kg.

TxA₂ Synthase [5] = biological target: T1, TxA₂ Synthase; assay: Ex vivo inhibition of TxA₂ synthesis in serum after oral administration; settings: 1 h, p.o., blood taken one hour after treatment, read-out: ED₅₀ inhibition of the synthesis of TxA₂ (ex vivo)
Method: as §1
The ex vivo experiments were performed as follows.
The compounds were orally administered to RRM rats by gavage at the dose of 2.5 mg/kg in 0.5% methocel. One hour after treatment rats were anaesthetised with ether, blood was withdrawn from the abdominal aorta and allowed to clot for 1 h at 37°C. Samples were then centrifuged, serum collected and stored at -20°C until assayed.

[6] = RRM rats whole blood, clotting 1 h at 37°C, read-out: In vitro effect on TxB₂ synthesis in RRM rats whole blood, IC₅₀

SMILES | IC50 (TxA₂ Synthase [1]) [nM] | IC50 (TxA₂ Synthase [2]) [nM] | IC50 (TxA₂ Synthase [1]; RRM rats isolated glomeruli, incubation 1 h at 37°C, read-out: In vitro effect on TxB₂ synthesis in RRM rats glomeruli, IC₅₀) [nM] | times more potent than ASA on glomerular TxB₂ synthesis (TxA₂ Synthase [1]; glomeruli, ratio to ASA) | times more potent than Dazoxiben on glomerular TxB₂ synthesis (TxA₂ Synthase [1]; glomeruli, ratio to Dazoxiben) [times] | changes in heart rate [3] | time until blood pressure returned toward normal levels ([3]; after treatment) [h] | peak effect on blood pressure (MBP) ([3]; peak reached at 30 minutes postdrug) [mm Hg] | IC50 (TxA₂ Synthase [2]; [6]) [nM] | times more potent than the reference compound ASA (TxA₂ synthesis in whole blood) (TxA₂ Synthase [2]) [times] | times more potent than the reference compound Dazoxiben (TxA₂ synthesis in whole blood) (TxA₂ Synthase [2]) [times] | LD50 at 168 h [4] [mg/kg] | ED50 (TxA₂ Synthase [5]) [mg/kg]
CC(=O)Oc1ccccc1C(=O)O [ASA, Acetylsalicylic acid, reference compound] | 140000 | 42000 |  |  |  |  |  |  |  |  |  |  | 
CCOC(=O)C1=C(C)NC(C)=C(C(=O)OCC)C1c1cccc(-n2ccnc2)c1 [FCE 24265, 1,4-dihydro-2,6-dimethyl-4-[3-(1H-imidazol-1-yl)phenyl]-3,5-pyridinedicarboxylic acid, diethyl ester] |  |  | 36 | ~4,000 times | 4.7 | No changes | 3 | -30 ± 4 | 170 | 247 | 7 | > 800 | 2.3
CCOC(=O)C1=C(C)NC(C)=C(C(=O)OCC)C1c1cccc(-c2cccnc2)c1 [FCE 26055, 1,4-dihydro-2,6-dimethyl-4-[3-(3-pyridyl)phenyl]-3,5-pyridinedicarboxylic acid, diethyl ester] |  |  |  |  |  |  |  |  | 450 | 90 | 3 |  | 
